Measured values published in patent publication US20260344665A1, “FUNGICIDAL COMPOUND” (priority 2022, published 2026).

Assays:
Format in all cases: in vivo
[1] = test system: Blumeria graminis f.sp. tritici; experiment: Mixture with malonomicin, leaf disc, Blumeria graminis f.sp. tritici preventive; conditions: foliar, 168 h, read-out: control of fungal growth
Excerpt: A stock solution for oligosaccharide compound according to the present invention was produced in water plus 0.025% Tween®20. Malonomicin was produced according to Law et al, 2018 (Nature Catalys is | VOL 1 | DECEMBER 2018 | 977-984). A stock solution of malonomicin was produced in water plus 0.025% Tween®20.
Assays to test efficacy of mixtures of the compound of Formula (I) in combination with malonomicin on the control of fungal pathogens in a leaf disc assay were designed for two 24 well plates.
Table 11 and Table 12: Outline of 24 well testplate (3) and testplate (4) including concentration of compounds per well. The upper number in the cell indicates the oligosaccharide compound of the present invention concentration (ppm), the lower number malonomicin concentration (ppm). Column (1) holds a dilution series of compound of Formula (I), row (4-D) hold a dilution series of malonomicin. Well 4-D-(1) represents an untreated check. This design was applied for tests including Blumeria graminis f.sp. tritici (EPPO code: ERYSGT) with preventive spray timing and Parastagonospora nodorum (EPPO code: LEPTNO) with preventive spray timing.
A first set of master plates with 1× concentrated spray solution of the compound of Formula (I) stock diluted in water with concentrations according to Table 8, Table 9, Table 11 and Table 12, respectively, was prepared. Each well contained 0.025% Tween®20. Accordingly, a second set of master plates with 1× concentrated malonomicin stock diluted in water was prepared. Each well of the second set contained 0.025% Tween®20. Leaf segments placed on agar in 24 well plates are sprayed with 8 ul of solution from the master plate containing compound of Formula (I) and the leaf segments were let to dry, followed 2 hours later by 8 ul of solution from the master plate containing malonomicin. After second sprays have dried, leaf segments are infected with fungal spores to obtain a preventive application timing. Alternatively, leaf segments infected one day before spray of the compounds are used, resulting in a curative spray timing. In addition, several plates were produced where leaf segments were sprayed 2× in absence of test compound (with only Tween®20), representing the untreated check samples. For each leaf segment percent leaf coverage of disease symptoms was assessed. Percent leaf coverage reduction relative to the untreated check was calculated. Efficacy of the mixtures was tested in duplicate and on different fungal species. Reported efficacy values are the average of two replicate results.
Blumeria graminis f.sp. tritici (EPPO Code: ERYSGT) with Preventive Spray Timing
Wheat (cultivar Kanzler) leaf segments are placed on agar in multiwell plates (24-well format) and sprayed with test solutions (8 ul per well). After drying, the leaf disks are inoculated with spores of the fungus. After appropriate incubation the activity of a compound is assessed 7 dpi (days post inoculation) as preventive fungicidal activity.

[2] = test system: Puccinia recondita f. sp. tritici; experiment: Puccinia recondita f. sp. tritici / wheat / leaf disc curative (brown rust); conditions: for % reduction fungal growth: wheat
Procedure: (§1) Leaf disks or leaf segments of various plant species were cut from plants grown in the greenhouse. The cut leaf discs or segments were placed in multiwell plates (24-well format) onto water agar. The leaf disks were sprayed with a test solution before (preventative) or after (curative) inoculation. Compounds to be tested were prepared as water solutions (max. 10 mg/ml) which were diluted to the appropriate concentration with 0.025% Tween20 just before spraying. The inoculated leaf discs or segments were incubated under defined conditions (temperature, relative humidity, light, etc.) according to the respective test system. A single evaluation of disease level was carried out 3-9 days days after inoculation, depending on the pathosystem. Percent disease control relative to the untreated check leaf discs or segments was then calculated.
Puccinia recondita f. sp. tritici/Wheat/Leaf Disc Curative (Brown Rust)
Wheat leaf segments cv. Kanzler were placed on agar in multiwell plates (24-well format). The leaf segments were inoculated with a spore suspension of the fungus. Plates were stored in darkness at 19 °C and 75% rh. The formulated test compound diluted in water was applied 1 day after inoculation. The leaf segments were incubated at 19 °C and 75% rh under a light regime of 12 h light/12 h darkness in a climate cabinet and the activity of a compound was assessed as percent disease control compared to untreated when an appropriate level of disease damage appeared in untreated check leaf segments (6-8 days after application).

several fungal species = experiment: Leaf disc or leaf segment tests, summary over several fungal species; conditions: foliar; leaf disc and leaf segment tests; read-out: concentration from which fungal growth is reduced
Procedure: as §1
Wheat leaf segments cv. Kanzler were placed on agar in multiwell plates (24-well format) and sprayed with the formulated test compound diluted in water. […] The inoculated leaf segments were incubated at 19 °C and 75% rh under a light regime of 12 h light/12 h darkness in a climate cabinet and the activity of a compound was assessed as percent disease control compared to untreated leaf when an appropriate level of disease damage appeared in untreated check leaf segments (7-9 days after application). […]

Q: How did the inhibition of growth at 9.38 µg/mL ([1]; Formula (I) 9.38 ppm solo) turn out when `CC(=O)NC1C(OCC(OC2OC(CO)C(O)C(O)C2O)C2OC(OC3C(O)C(CO)OC(OC4(CO)OC(C(O)CO)C(O)C4OC4OC(CO)C(O)C(O)C4O)C3O)C(O)C(O)C2OC2OC(C(O)CO)C(O)C(O)C2OC2OCC(OC(N)=O)C(O)C2O)OC(CO)C(O)C1O` (stereo not drawn) [compound of Formula (I)] was run?
A: 10%

Q: What about the inhibition of growth at 18.75 µg/mL ([1]; Formula (I) 18.75 ppm solo) of the same compound?
A: 0%

Q: And the inhibition of growth at 37.5 µg/mL ([1]; Formula (I) 37.5 ppm solo)?
A: 0%

Q: And the inhibition of growth at 75 µg/mL ([1]; Formula (I) 75 ppm solo)?
A: 20%

Q: And the inhibition of growth at 150 µg/mL ([1]; Formula (I) 150 ppm solo)?
A: 0%

Q: What about the inhibition of growth at 300 µg/mL ([1]; Formula (I) 300 ppm solo) of the same compound?
A: 10%

Q: What about the inhibition of growth at 600 µg/mL ([1]; Formula (I) 600 ppm solo) of the same compound?
A: 10%

Q: And the “curative activity to control Puccinia recondita” value [2]?
A: curative (infection of pathogen followed by application of compound) activity

Q: What about the “% reduction fungal growth” value ([2]; 0.80 ppm) of the same compound?
A: 0%

Q: What about the “% reduction fungal growth” value ([2]; 2.50 ppm) of the same compound?
A: 0%

Q: What about the “% reduction fungal growth” value ([2]; 7.40 ppm) of the same compound?
A: 0%

Q: And the “% reduction fungal growth” value ([2]; 22.00 ppm)?
A: 90%

Q: What about the “% reduction fungal growth” value ([2]; 67.00 ppm) of the same compound?
A: 100%

Q: What about the “% reduction fungal growth” value ([2]; 200.00 ppm) of the same compound?
A: 100%

Q: And the minimal effective concentration (several fungal species)?
A: ≥ 22 µg/mL
